Assay: Aerodynamic assessment of fine particles of the inhalation powder composition (modified Anderson Cascade Impactor, Genuair inhaler)
Format: physicochemical
Conditions: dry powder blend of the polymorph with lactose carrier, no additive material, ACI 60 L/min, fine particles <5 μm, HPLC
Text: The process for manufacturing the pharmaceutical composition comprising a polymorphic salt of compound (I) (Type α, Type β or Hydrate) and a carrier is as follows: • 1. 20% by weight of lactose used as a carrier was blended with one polymorph (Type α, Type β or Hydrate). The resulting mixture was sieved and mixed again. • 2. The remaining 80% by weight of lactose was sieved and added to the mixture of Step 1. The whole mixture was blended, sieved and blended again resulting in the final inhalation powder blend.
The test on the aerodynamic assessment of the fine particles (FPD<5 μm) of the inhalation powder composition is carried out in combination with the Genuair® inhaler. The Fine Particle Fraction of the three formulations was calculated on basis of the principles of the aerodynamic assessment of fine particles according to the Current European pharmacopoeia (Ph. Eur. Chapter 2.9.18) and USP<601> by the aid of aerodynamic impactor analyses using a modified Anderson Cascade Impactor (ACI), 60 L/min-configuration including pre-separator, stage-1, -0, and stage 1-7 (filter stage). The content of the active ingredient on each stage of the impactor is determined my means of HPLC.
The fine particle dose (FPD<5 μm) is calculated based on Ph. Eur. Chapter 2.9.18 and USP<601> by point to point interpolation per dosage. […]
To obtain the Fine Particle Dose, the cumulative percent value (y-value) at which the line of data plot crosses 5 μm mark is determined. […] FPD [μg]=yFPD·F/100% • FPD=Fine particle dose<5 μm of the active ingredient per dosage [μg]. • yFPD=y-value of cumulative percentage of mass at a particle size of 5 μm evaluated by linear point to point interpolation [%]. • F=sum of mass on stage-1-stage 7 (filter) per dosage [μg].
The Fine Particle Fraction (FPF) is the percentage of the emitted dose that the Fine Particel Dose represents and is calculated as follows: FPF [%]=(FPD [μg]/Total sum [μg])*100 • Total sum=the amount of drug substance in the respective impactor (Adapter-Filter).

| SMILES | FPF (%) | FPF (%) (hemihydrate) |
| --- | --- | --- |
| O=c1ccc2c([C@@H](O)CNCCCCCCOCC(F)(F)c3ccccc3)ccc(O)c2[nH]1 [Comparative Example, 5-(2-{[6-(2,2-difluoro-2-phenylethoxy)hexyl]amino}-1(R)-hydroxyethyl)-8-hydroxyquinolin-2(1H)-one, heminapadisylate, reference compound] | 42.2% |  |
| O=c1ccc2c([C@@H](O)CNCCCCCCOCC(F)(F)c3ccccc3)ccc(O)c2[nH]1 [Polymorph Type β, 5-(2-{[6-(2,2-difluoro-2-phenylethoxy)hexyl]amino}-1(R)-hydroxyethyl)-8-hydroxyquinolin-2(1H)-one, heminapadisylate] | 49.3% |  |
| O=c1ccc2c([C@@H](O)CNCCCCCCOCC(F)(F)c3ccccc3)ccc(O)c2[nH]1 [Polymorph Hydrate, 5-(2-{[6-(2,2-difluoro-2-phenylethoxy)hexyl]amino}-1(R)-hydroxyethyl)-8-hydroxyquinolin-2(1H)-one, heminapadisylate, hemihydrate] |  | 49.8% |
